Assay results published in PMC11445910 (International Journal of Veterinary Science and Medicine, 2024).
Converted amounts (≈) assume the structure as drawn. Where two headings read alike, the source gives them in different places.

Assays:
FMDV serotype A (NP05) [1] = assay: microbe, parasite or virus in culture; format: cell-based, Foot-and-mouth disease virus
FMDV serotype A (NP05) [2] = assay: microbe, parasite or virus in culture; format: cell-based; conditions: Foot-and-mouth disease virus, BHK-21, read-out: Post-viral entry EC50
FMDV serotype A (NP05) [3] = assay: microbe, parasite or virus in culture; format: cell-based; conditions: Foot-and-mouth disease virus, BHK-21, read-out: Prophylactic EC50
FMDV serotype A (NP05) [4] = format: cell-based, Foot-and-mouth disease virus
FMDV serotype A (NP05) [5] = assay: microbe, parasite or virus in culture; format: cell-based, Foot-and-mouth disease virus; remark: listed apart in the source
FMDV serotype A (NP05) [6] = format: cell-based, Foot-and-mouth disease virus; remark: listed apart in the source
FMDV serotype A (NP05) [7] = format: cell-based, Foot-and-mouth disease virus; remark: listed apart in the source
FMDV 3Dpol = format: cell-based, Foot-and-mouth disease virus
SARS-CoV-2 = conditions: read-out: EC50 against SARS-CoV-2; cited from earlier work
RdRp = conditions: read-out: Binding affinity (RdRp inhibition using surface plasmon resonance assay); cited from earlier work
HCoV-OC43 = conditions: read-out: EC50 against HCoV-OC43; cited from earlier work
HCoV-NL63 = conditions: read-out: EC50 against HCoV-NL63; cited from earlier work
MERS-CoV = conditions: read-out: EC50 against MERS-CoV; cited from earlier work
MHV-A59 = conditions: read-out: EC50 against MHV-A59; cited from earlier work
EBOV = conditions: read-out: IC50 (viral-like particle entry); cited from earlier work
ZIKV NS5 RNA polymerase = conditions: read-out: IC50 (NS5 polymerase inhibition); cited from earlier work
enterovirus (EV) A71 = conditions: read-out: EC50 against enterovirus (EV) A71; cited from earlier work
[8] = system: HIV reverse transcriptase; conditions: cited from earlier work
Influenza virus H1N1 = conditions: cited from earlier work
HBV = conditions: read-out: IC50 against HBV; cited from earlier work
FMDV serotype A = conditions: cited from earlier work
CHIKV = conditions: read-out: EC50 against CHIKV; cited from earlier work
[9] = system: papain-like protease 2 protein; conditions: read-out: IC50 (papain-like protease 2 protein inhibition); cited from earlier work
Influenza virus type A = conditions: cited from earlier work
RSV = conditions: cited from earlier work
[10] = Foot-and-mouth disease virus, BHK-21, read-out: Pre-viral entry EC50
[11] = Foot-and-mouth disease virus, BHK-21, read-out: Penetration EC50

CC[C@H]1CN2CCc3cc(OC)c(OC)cc3[C@@H]2C[C@@H]1C[C@H]1NCCc2cc(O)c(OC)cc21 [CPL, Cephaeline]
EC50 (FMDV serotype A (NP05) [1]; [10]): 0.1 ± 0.1 µM | EC50 (FMDV serotype A (NP05) [2]): 0.05 ± 0.13 µM | EC50 (FMDV serotype A (NP05) [3]): 0.23 ± 0.65 µM | Effect on viral attachment (binding of FMDV) (FMDV serotype A (NP05) [4]): neither CPL nor EMT impeded the binding of FMDV | EC50 (FMDV serotype A (NP05) [5]; [11]): 0.05 µM | % Virucidal effect (Virus titre reduction of log TCID50/ml), High dose (FMDV serotype A (NP05) [6]): 79.59% | % Virucidal effect (Virus titre reduction of log TCID50/ml), Low dose (FMDV serotype A (NP05) [6]): 68.35% | log viral titre after treatment, high dose (FMDV serotype A (NP05) [6]): 1.00 | log viral titre after treatment, low dose (FMDV serotype A (NP05) [6]): 1.00 | Viral load reduction (viral copy numbers) (FMDV serotype A (NP05) [7]): dose-dependent manner | Negative-stranded RNA production (FMDV 3Dpol): affected the production of negative-stranded RNA | EC50 (SARS-CoV-2): 0.0123 µM | Kd (RdRp): 8.9 µM

C[C@H]1[C@H]2CC[C@H]3[C@@H]4CC=C5C[C@@H](N(C)C)CC[C@]5(C)[C@H]4CC[C@]23CN1C [Conessine (CNS), Conessine]
EC50 (HCoV-OC43): 2.34 µM | EC50 (HCoV-NL63): 10.7 µM | EC50 (MERS-CoV): 4.98 µM | EC50 (MHV-A59): 11.5 µM

CC[C@H]1CN2CCc3cc(OC)c(OC)cc3[C@@H]2C[C@@H]1C[C@H]1NCCc2cc(OC)c(OC)cc21 [EMT, Emetine, reference compound]
EC50 (FMDV serotype A (NP05) [1]; [10]): 0.13 µM | EC50 (FMDV serotype A (NP05) [2]): 0.24 ± 0.63 µM | EC50 (FMDV serotype A (NP05) [3]): 0.64 ± 0.2 µM | Effect on viral attachment (binding of FMDV) (FMDV serotype A (NP05) [4]): neither CPL nor EMT impeded the binding of FMDV | EC50 (FMDV serotype A (NP05) [5]; [11]): 0.12 µM | % Virucidal effect (Virus titre reduction of log TCID50/ml), Low dose (FMDV serotype A (NP05) [6]): 32.28% | log viral titre after treatment, high dose (FMDV serotype A (NP05) [6]): 2.16 | log viral titre after treatment, low dose (FMDV serotype A (NP05) [6]): 2.14 | Viral load reduction (viral copy numbers) (FMDV serotype A (NP05) [7]): dose-dependent manner | Negative-stranded RNA production (FMDV 3Dpol): affected the production of negative-stranded RNA | EC50 (HCoV-OC43): 0.3 µM | EC50 (HCoV-NL63): 1.43 µM | EC50 (MERS-CoV): 0.34 µM | EC50 (MHV-A59): 0.12 µM | EC50 (SARS-CoV-2): 0.00771 µM | IC50 (EBOV): 10.2 µM | IC50 (ZIKV NS5 RNA polymerase): 0.121 µM | EC50 (enterovirus (EV) A71): 0.04 µM | Reduction of HIV reverse transcriptase activity [8]: approximately 50%

C/C=C1/CN2[C@@H]3C[C@@]45c6ccccc6N[C@]4(O3)[C@@H]2C[C@@H]1[C@H]5C(=O)OC [Picrinine (PCN), Picrinine]
Reduction of haemagglutination titres (Influenza virus H1N1): Reduction of haemagglutination titres at 1/480; 12.5 mg/kg of Alstonia scholaris (L.) crude extract

CCOC(=O)/C=C/[C@H](C[C@@H]1CCNC1=O)NC(=O)[C@@H](CC(=O)[C@@H](NC(=O)c1cc(C)on1)C(C)C)Cc1ccc(F)cc1 [RPV, Rupintrivir]
EC50 (FMDV serotype A (NP05) [1]; read-out: Pre-viral entry EC50): 10.5 ± 1.02 µM | EC50 (FMDV serotype A (NP05) [2]): 3.43 ± 0.54 µM | EC50 (FMDV serotype A (NP05) [5]; read-out: Penetration EC50): 2.06 ± 0.31 µM

C[C@@H]1CC[C@@]2(NC1)O[C@H]1C[C@H]3[C@@H]4CC=C5C[C@@H](O[C@@H]6O[C@H](CO)[C@@H](O[C@@H]7O[C@@H](C)[C@H](O)[C@@H](O)[C@H]7O)[C@H](O)[C@H]6O[C@@H]6O[C@@H](C)[C@H](O)[C@@H](O)[C@H]6O)CC[C@]5(C)[C@H]4CC[C@]3(C)[C@H]1[C@@H]2C [Solamargine (SLG), Solamargine]
IC50 (HBV): 2.17 µM

NC(=O)c1ncc[nH]c1=O [T-1105]
IC50 against FMDV serotype A (FMDV serotype A): 1.11 mg/L (≈ 7.98 µM) | IC50 (FMDV serotype A; read-out: IC50 against FMDV serotype A): 7.97 µM

C[C@H]1CC[C@]2(NC1)O[C@H]1C[C@H]3[C@@H]4CC[C@H]5C[C@@H](O)CC[C@]5(C)[C@H]4CC[C@]3(C)[C@H]1[C@@H]2C [Tomatidine (TMD), Tomatidine]
EC50 (CHIKV): 1.3 µM

O=C1c2ccccc2-n2c1nc1ccccc1c2=O [Tryptanthrin (TTT), Tryptanthrin]
IC50 [9]: 0.06 µM

Strictosamide [Strictosamide (STM)]
IC50 against influenza virus type A (Influenza virus type A): IC50 of 25.68 µg/ml in MDCK cells IC50 of 12.50 µg/ml in Hep-2 cells | IC50 against RSV (RSV): IC50 of 25.68 µg/ml in MDCK cells IC50 of 12.50 µg/ml in Hep-2 cells
